Here are results for 23 molecules from patent US8937078B2, “Quinazolinones as prolyl hydroxylase inhibitors” (Janssen Pharmaceutica NV, priority 2009, dated 2015).

One assay has as its target T1, human PHD2 (PHD2181-417) (Homo sapiens, UniProt Q9GZT9).
T1 construct: Smt (SUMO) tag (cleaved yes); made in house; host or cells: E. coli BL21 (pBAD vector)
Description: PHD enzymatic assay ([14C]-succinic acid production). To be noted: PHD2181-417, HIF-1α peptide 10 μM, average of results; read-out: Enzyme pIC50 (converted). It is filed as biochemical. Here is the method: Protein production was achieved by expression in BL21 cells grown in Terrific Broth containing 100 μg/ml ampicillin. Cell cultures were inoculated at 37° C. and grown to an OD600 of 0.8. Cultures were induced with 0.1% arabinose and grown overnight at 20° C. with continuous shaking at 225 rpm. Cells were then harvested by centrifugation and stored at −80° C. Cell pellets were suspended in Buffer A (50 mM Tris-HCl pH 7.2, 100 mM NaCl, 100 mM L-arginine, 1 mM TCEP, 0.05% (w/v) NP-40, 50 mM imidazole) followed by the addition of lysozyme and benzonase. Cells were lysed by sonication and the lysate was cleared by centrifugation (15,000 rpm, 90 min, 4° C.). The protein was purified by nickel affinity chromatography using a HisTrap Crude FF column (GE Healthcare). Samples were eluted in Buffer A with a 50-200 mM imidazole gradient. […] The flow-through was then dialyzed into 50 mM MES pH 6.0, 1 mM TCEP, 5 mM NaCl for ion exchange chromatography on a HiTrap SP Cation Exchange column (GE Healthcare). […] Fractions were pooled for further purification by size exclusion chromatography over a Superdex 75 Size Exclusion Column (GE Healthcare). Final protein was concentrated to 4 mg/ml and dialyzed in 10 mM PIPES pH 7.0, 100 mM NaCl, 0.5 mM TCEP.
(10 μM, California Peptide Research Inc., Napa, Calif.), and [5-^14C]-2-oxoglutaric acid (50 mCi/mmol, Moravek Chemicals, Brea, Calif.) in reaction buffer (40 mM Tris-HCl, pH 7.5, 0.4 mg/ml catalase, 0.5 mM DTT, 1 mM ascorbate) for 10 minutes. The reaction was stopped by addition of 50 μl of 70 mM H3PO4 and 50 μl of 500 mM NaH2PO4, pH3.2. Detection of [^14C]-succinic acid was achieved by separating from [5-^14C]-2-oxoglutaric acid by incubating the reaction mixture with 100 μl of 0.16 M DNP prepared in 30% perchloric acid. Next, 50 μl of unlabeled 20 mM 2-oxoglutaric acid/20 mM succinic acid, serving as carrier for the radioactivity, was added to the mixture, and was allowed to proceed for 30 minutes at room temperature. The reaction was then incubated with 50 μl of 1 M 2-oxoglutaric acid for 30 additional minutes at room temperature to precipitate the excess DNP. The reaction was then centrifuged at 2800×g for 10 minutes at room temperature to separate [^14C]-succinic acid in the supernatant from the precipitated [^14C]-dinitrophenylhydrazone. Fractions of the supernatant (400 μl) were counted using a beta counter (Beckman Coulter, Fullerton, Calif.).

The next assay relates to Hep-3B cells. Description: Cellular assay: erythropoietin secretion in Hep-3B cells. It counts as cell-based, human. Particulars: Homo sapiens, Hep3B, 100 μM compound, 24 hours, percent of EPO secretion relative to assay control compound 7-[(4-Chloro-phenyl)-(5-methyl-isoxazol-3-ylamino)-methyl]-quinolin-8-ol, read-out: Cellular % EPO Stimulation. Here is the method: Hep-3B cells (ATCC, Manassas, Va.) were plated in 96-well plates at 20,000 cells per well in 100 μl of DMEM containing 10% fetal bovine serum, 1% non-essential amino acids, 50 IU/mL of penicillin and 50 μg/mL of streptomycin (all cell culture reagents from Invitrogen, Carlsbad, Calif.). Twenty-four hours after plating, compounds were added and incubated for an additional 24 hours. All compounds were tested under saturating conditions with final compound concentrations at 100 μM. Fifty microliters of the supernatant was then transferred to a human Hypoxia assay kit (Meso-Scale Discovery, Gaithersburg, Md.). Erythropoietin in the supernatant was detected according to the manufacturer's instructions as follows. EPO detection plates were blocked with 3% BSA in PBS overnight and 50 μl of the supernatant was incubated at room temperature in an orbital shaker for 2 h. Twenty-five microliters of 0.5 μg/ml anti-EPO detection antibody was added for 2 hours at room temperature in an orbital shaker. After 3 washes in PBS, 150 μl of 1× read buffer is added and the plate is then read on the MSD SECTOR instrument.

T1 sequence (Q9GZT9 181-417): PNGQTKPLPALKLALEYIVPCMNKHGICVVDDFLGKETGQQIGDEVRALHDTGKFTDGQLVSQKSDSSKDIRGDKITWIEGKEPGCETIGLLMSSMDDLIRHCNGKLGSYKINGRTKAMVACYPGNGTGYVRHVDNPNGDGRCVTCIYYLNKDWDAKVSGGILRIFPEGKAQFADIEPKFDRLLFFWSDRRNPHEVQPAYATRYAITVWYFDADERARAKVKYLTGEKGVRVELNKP

Take `CC(C)c1cccc2c(=O)[nH]c(-n3cc(C(=O)O)cn3)nc12` [Example 114, 1-(8-Isopropyl-4-oxo-3,4-dihydro-quinazolin-2-yl)-1H-pyrazole-4-carboxylic acid]: at human PHD2 (PHD2181-417), the IC50 is 251 nM. In addition, the Emax at 100 µM in the assay on Hep-3B cells was 16%.

As to `Cc1cccc(C)c1C(=O)Nc1ccc2nc(-n3cc(C(=O)O)cn3)[nH]c(=O)c2c1` [Example 166, 1-[6-(2,6-Dimethyl-benzoylamino)-4-oxo-3,4-dihydro-quinazolin-2-yl]-1H-pyrazole-4-carboxylic acid], at human PHD2 (PHD2181-417), the IC50 is 31.6 nM. Also, the Emax at 100 µM in the assay on Hep-3B cells stood at 11%.

As for `O=C(O)c1cnn(-c2nc3ccc(F)cc3c(=O)[nH]2)c1` [Example 4, 1-(6-Fluoro-4-oxo-3,4-dihydro-quinazolin-2-yl)-1H-pyrazole-4-carboxylic acid], at human PHD2 (PHD2181-417), the IC50 was 39.8 nM. In the assay on Hep-3B cells, the Emax at 100 µM was 15%.

As to `O=C(O)c1cnn(-c2nc3cc(Sc4ccccc4Cl)ccc3c(=O)[nH]2)c1` [Example 80, 1-[7-(2-Chloro-phenylsulfanyl)-4-oxo-3,4-dihydro-quinazolin-2-yl]-1H-pyrazole-4-carboxylic acid], the IC50 on human PHD2 (PHD2181-417) is 31.6 nM. Also, in the assay on Hep-3B cells, the Emax at 100 µM came out at 5%.

For `O=C(O)c1cnn(-c2nc3cc(-c4ccccc4Cl)ccc3c(=O)[nH]2)c1` [Example 185, 1-[7-(2-Chloro-phenyl)-4-oxo-3,4-dihydro-quinazolin-2-yl]-1H-pyrazole-4-carboxylic acid], the IC50 on human PHD2 (PHD2181-417) is 100 nM. Further, the Emax at 100 µM in the assay with Hep-3B cells turned out to be 15%.

As to `CC(=O)Nc1ccc2nc(-n3cc(C(=O)O)cn3)[nH]c(=O)c2c1` [Example 167, 1-(6-Acetylamino-4-oxo-3,4-dihydro-quinazolin-2-yl)-1H-pyrazole-4-carboxylic acid], on human PHD2 (PHD2181-417), the IC50 is 31.6 nM. Besides, in the assay on Hep-3B cells, the Emax at 100 µM was found to be 26%.

As for `CCNc1ccc2nc(-n3cc(C(=O)O)cn3)[nH]c(=O)c2c1` [Example 172, 1-(6-Ethylamino-4-oxo-3,4-dihydro-quinazolin-2-yl)-1H-pyrazole-4-carboxylic acid], the IC50 at human PHD2 (PHD2181-417) was 25.1 nM. Moreover, the Emax at 100 µM with Hep-3B cells was 20%.

For `O=C(O)c1cnn(-c2nc3ccc4[nH]ccc4c3c(=O)[nH]2)c1` [Example 23, 1-(1-Oxo-2,7-dihydro-1H-pyrrolo[3,2-f]quinazolin-3-yl)-1H-pyrazole-4-carboxylic acid], the IC50 at human PHD2 (PHD2181-417) is 158 nM. For the same molecule, the Emax at 100 µM in the assay with Hep-3B cells is 33%.

As for `O=C(O)c1cnn(-c2nc3cc4c(cc3c(=O)[nH]2)CCCC4)c1` [Example 143, 1-(4-Oxo-3,4,6,7,8,9-hexahydro-benzo[g]quinazolin-2-yl)-1H-pyrazole-4-carboxylic acid], at human PHD2 (PHD2181-417), the IC50 is 31.6 nM. Also, the Emax at 100 µM with Hep-3B cells was found to be 75%.

In the case of `O=C(O)c1cnn(-c2nc3cc(Cl)ccc3c(=O)[nH]2)c1` [Example 1, 1-(7-Chloro-4-oxo-3,4-dihydro-quinazolin-2-yl)-1H-pyrazole-4-carboxylic acid], the IC50 at human PHD2 (PHD2181-417) is 50.1 nM. Also, the Emax at 100 µM in the assay on Hep-3B cells is 37%.

Regarding `C#Cc1ccc2nc(-n3cc(C(=O)O)cn3)[nH]c(=O)c2c1` [Example 76, 1-(6-Ethynyl-4-oxo-3,4-dihydro-quinazolin-2-yl)-1H-pyrazole-4-carboxylic acid], the IC50 on human PHD2 (PHD2181-417) was 31.6 nM. The Emax at 100 µM in the assay on Hep-3B cells is 16%.

With `O=C(O)c1cnn(-c2nc3cc(F)c(Br)cc3c(=O)[nH]2)c1` [Example 127, 1-(6-Bromo-7-fluoro-4-oxo-3,4-dihydro-quinazolin-2-yl)-1H-pyrazole-4-carboxylic acid], the IC50 on human PHD2 (PHD2181-417) was 31.6 nM. Also, the Emax at 100 µM in the assay with Hep-3B cells was found to be 9%.

In the case of `O=C(O)c1cnn(-c2nc3cc(Cl)c(SC(F)(F)F)cc3c(=O)[nH]2)c1` [Example 159, 1-(7-Chloro-4-oxo-6-trifluoromethylsulfanyl-3,4-dihydro-quinazolin-2-yl)-1H-pyrazole-4-carboxylic acid], the IC50 on human PHD2 (PHD2181-417) was 25.1 nM. Also, the Emax at 100 µM in the assay on Hep-3B cells came out at 16%.

With `O=C(O)c1cnn(-c2nc3ccc(Oc4ccc(Cl)cc4)cc3c(=O)[nH]2)c1` [Example 46, 1-[6-(4-Chloro-phenoxy)-4-oxo-3,4-dihydro-quinazolin-2-yl]-1H-pyrazole-4-carboxylic acid], the IC50 at human PHD2 (PHD2181-417) was 31.6 nM. The Emax at 100 µM with Hep-3B cells was 126%.

In the case of `O=C(O)c1cnn(-c2nc3ccc(Oc4cccc5c4CCCC5)cc3c(=O)[nH]2)c1` [Example 44, 1-[4-Oxo-6-(5,6,7,8-tetrahydro-naphthalen-1-yloxy)-3,4-dihydro-quinazolin-2-yl]-1H-pyrazole-4-carboxylic acid], the IC50 at human PHD2 (PHD2181-417) was 25.1 nM. In the assay with Hep-3B cells, the Emax at 100 µM stood at 52%.

Regarding `O=C(O)c1cnn(-c2nc3ccc(N4CCCCC4)cc3c(=O)[nH]2)c1` [Example 124, 1-(4-Oxo-6-piperidin-1-yl-3,4-dihydro-quinazolin-2-yl)-1H-pyrazole-4-carboxylic acid], the IC50 at human PHD2 (PHD2181-417) was 39.8 nM. Besides, the Emax at 100 µM in the assay with Hep-3B cells worked out at 71%.

On to `Cc1cc2nc(-n3cc(C(=O)O)cn3)[nH]c(=O)c2cc1Oc1cccc(C(F)(F)F)c1` [Example 93, 1-[7-methyl-4-oxo-6-(3-trifluoromethyl-phenoxy)-3,4-dihydro-quinazolin-2-yl]-1H-pyrazole-4-carboxylic acid], for which the IC50 at human PHD2 (PHD2181-417) was 20 nM. Besides, in the assay with Hep-3B cells, the Emax at 100 µM came out at 153%.

On to `Cc1cc(C)cc(Oc2cc3c(=O)[nH]c(-n4cc(C(=O)O)cn4)nc3cc2F)c1` [Example 94, 1-[6-(3,5-dimethyl-phenoxy)-7-fluoro-4-oxo-3,4-dihydro-quinazolin-2-yl]-1 H-pyrazole-4-carboxylic acid], for which the IC50 at human PHD2 (PHD2181-417) is 20 nM. Moreover, in the assay with Hep-3B cells, the Emax at 100 µM is 90%.

As to `O=C(O)c1cnn(-c2nc3ccc(Oc4cccc(C(F)(F)F)c4)cc3c(=O)[nH]2)c1` [Example 100, 1-[4-oxo-6-(3-trifluoromethyl-phenoxy)-3,4-dihydro-quinazolin-2-yl]-1H-pyrazole-4-carboxylic acid], on human PHD2 (PHD2181-417), the IC50 is 25.1 nM. The Emax at 100 µM in the assay with Hep-3B cells worked out at 55%.

`O=C(O)c1cnn(-c2nc3cc(-c4ccccc4)ccc3c(=O)[nH]2)c1` [Example 184, 1-(4-Oxo-7-phenyl-3,4-dihydro-quinazolin-2-yl)-1H-pyrazole-4-carboxylic acid]: the IC50 at human PHD2 (PHD2181-417) was 79.4 nM. In addition, the Emax at 100 µM in the assay with Hep-3B cells came to 12%.

As for `Cc1ccc2nc(-n3cc(C(=O)O)cn3)[nH]c(=O)c2c1` [Example 8, 1-(6-Methyl-4-oxo-3,4-dihydro-quinazolin-2-yl)-1H-pyrazole-4-carboxylic acid], the IC50 at human PHD2 (PHD2181-417) is 39.8 nM. The Emax at 100 µM with Hep-3B cells turned out to be 14%.

On to `O=C(O)c1cnn(-c2nc3cc(S(=O)(=O)c4ccccc4Cl)ccc3c(=O)[nH]2)c1` [Example 83, 1-[7-(2-Chloro-benzenesulfonyl)-4-oxo-3,4-dihydro-quinazolin-2-yl]-1H-pyrazole-4-carboxylic acid], for which the IC50 at human PHD2 (PHD2181-417) is 100 nM. In the assay with Hep-3B cells, the Emax at 100 µM was found to be 11%.

On to `Cc1cccc(-c2ccc3nc(-n4cc(C(=O)O)cn4)[nH]c(=O)c3c2)c1` [Example 190, 1-(4-Oxo-6-m-tolyl-3,4-dihydro-quinazolin-2-yl)-1H-pyrazole-4-carboxylic acid], for which the IC50 at human PHD2 (PHD2181-417) is 25.1 nM. The Emax at 100 µM with Hep-3B cells was 91%.
